In the NIST ThermoML archive (doi:10.1021/je800789b):
± gives the expanded uncertainty stated by the source.

Conditions: Crystal
With `O=C(O)C1CCCCC1` [cyclohexanecarboxylic acid] the Normal melting temperature was 29.8 ± 1.2 °C. `O=C(O)CC1CCCCC1` [cyclohexylethanoic acid] showed a Normal melting temperature of 29.8 ± 1.2 °C. In the case of `CCCCCCCCCCO` [decan-1-ol], the Normal melting temperature is reported as 6.2 ± 0.4 °C. For `CCCCCCCCCCCCO` [dodecan-1-ol], the Normal melting temperature was 24.1 ± 0.6 °C.
